Earlier results, collected in patent US20120289611A1, “PECTIN COMPOUNDS, METHODS OF USING PECTIN COMPOUNDS, AND METHODS OF CONTROLLING WATER SOLUBILITY” (priority 2009, published 2012).
In brackets after ≈: the same amount, converted by molar mass. Entries after “also recorded” stand apart in the source; their conditions may differ. Structures can show the parent of a compound that is named as a salt.

Conditions: for solubility: in water (where stated); for solubility in words: water, or solvent not stated

| solubility | solubility in words | Compound | solubility in words, other solvents (organic solvent named in the value, hydrochloride) |
| --- | --- | --- | --- |
| 0.97 µg/mL (≈ 2.63 µM) | – | Cc1c(OCC(F)(F)F)ccnc1C[S+]([O-])c1nc2ccccc2[nH]1 (centres unmarked) [Lansoprazole] | – |
| – | practically insoluble in water | CCc1ccc(CCOc2ccc(CC3SC(=O)NC3=O)cc2)nc1 (centres unmarked) [Pioglitazone hydrochloride] | slightly soluble in anhydrous ethanol; also recorded: very slightly soluble in acetone and acetonitrile; also recorded: insoluble in ether |
| – | very slightly soluble in water | COc1ccc2nc([S@@+]([O-])Cc3ncc(C)c(OC)c3C)[nH]c2c1 [Esomeprazole] | – |
| – | practically insoluble | CCCc1nc2c(C)cc(-c3nc4ccccc4n3C)cc2n1Cc1ccc(-c2ccccc2C(=O)O)cc1 [Telmisartan] | – |
| 0.82 µg/mL | – | CCCCc1nc(Cl)c(CO)n1Cc1ccc(-c2ccccc2-c2nnn[n-]2)cc1.[K+] [potassium losartan] | – |
| 0.583 µg/mL (≈ 1.43 µM) | – | COc1ccccc1OCCNCC(O)COc1cccc2[nH]c3ccccc3c12 (centres unmarked) [Carvedilol] | – |
| 0.82 µg/mL (≈ 1.94 µM) | – | CCCCc1nc(Cl)c(CO)n1Cc1ccc(-c2ccccc2-c2nn[nH]n2)cc1 [Losartan] | – |

Continued, compound first:

| Compound | solubility | solubility in words | solubility in words, other solvents (organic solvent named in the value, hydrochloride) |
| --- | --- | --- | --- |
| C[C@@H]1C[C@H]2[C@@H]3CCC4=CC(=O)C=C[C@]4(C)[C@@]3(Cl)[C@@H](O)C[C@]2(C)[C@@]1(OC(=O)c1ccco1)C(=O)CCl [Mometasone furoate] | – | practically insoluble | – |
| Cc1cc2c(s1)Nc1ccccc1N=C2N1CCN(C)CC1 [Olanzapine] | – | practically insoluble in water | – |
| CCC(=O)O[C@]1(C(=O)SCF)[C@H](C)C[C@H]2[C@@H]3C[C@H](F)C4=CC(=O)C=C[C@]4(C)[C@@]3(F)[C@@H](O)C[C@@]21C [Fluticasone propionate] | 0.51 µg/mL (≈ 1.02 µM) | – | – |
| CN(C)CCCC1(c2ccc(F)cc2)OCc2cc(C#N)ccc21 (centres unmarked) [Citalopram Hydrobromide] | 31 µg/mL | – | – |
| O=P(O)(O)C(O)(Cn1ccnc1)P(=O)(O)O [Zoledronic acid monohydrate] | – | sparingly soluble | – |
| COC(=O)[C@H](c1ccccc1Cl)N1CCc2sccc2C1 [Clopidogrel bisulphate] | 50.78 µg/mL | – | – |
